Reference: US9365522B2, “Pyrazole amide derivative” (AMGEN INC., priority 2015, dated 2016)

Target: T1, human RORγ-LBD (Homo sapiens, UniProt P51449)
T1 construct: made in house; host or cells: E. coli (BL-21)
T1 sequence (P51449 262-518): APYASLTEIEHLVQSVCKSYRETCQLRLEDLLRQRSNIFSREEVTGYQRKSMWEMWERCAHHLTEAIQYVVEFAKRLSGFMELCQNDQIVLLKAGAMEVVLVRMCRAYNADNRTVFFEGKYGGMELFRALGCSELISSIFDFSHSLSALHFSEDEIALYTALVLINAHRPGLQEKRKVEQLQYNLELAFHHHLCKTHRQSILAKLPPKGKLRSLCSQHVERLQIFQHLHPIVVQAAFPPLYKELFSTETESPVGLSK
Experiment: ROR gamma coactivator peptide recruitment Alphascreen assay (RORγ-LBD binding to GRIP1 coactivator peptide)
Assay type: biochemical
Settings: 5 nM human RORγ-LBD, 30 nM 7-β-hydroxycholesterol, 50 nM biotinylated GRIP1 coactivator peptide, overnight incubation at room temperature; read-out: result (pIC50, RORγ coactivator peptide recruitment Alphascreen assay) (converted)
Source text: Alphascreen™ is a bead-based amplified homogenous luminescent proximity assay that can be used for measuring the effect of compounds on protein-protein interactions. When biological interactions bring donor and acceptor beads into close proximity, reactive oxygen, generated upon laser excitation of the donor beads, initiates a luminescence/fluorescence cascade in the acceptor beads that leads to a highly amplified signal that can be measured as light in the 520-620 nm range. When the acceptor and donor beads are not in proximity, the reactive oxygen decays and only a very low background signal is generated.
An in vitro assay to assess inhibition of RORγ binding to the coactivator GRIP1 was established using Alphascreen™ technology. The interaction between nuclear receptors (NR) and coactivator proteins is a key step in signal transduction from the receptor to the transcriptional machinery and can be measured in vitro using only the ligand binding domain of the nuclear receptor and a peptide containing a coactivator protein LXXLL nuclear receptor binding motif
For the RORγ construct used in the coactivator recruitment assay, nucleotides corresponding to the ligand binding domain (LBD) of wild type human RORγ (amino acids 262-518 of Genbank Accession No. NM_005060.3) were cloned into the pET24 expression vector (Novagen), downstream of in-frame N-terminal 6×His and Flag tag sequences. Recombinant 6×His:Flag-tagged human RORγ-LBD protein was expressed in E. coli (BL-21) and purified by affinity chromatography on a nickel Sepharose column, followed by anion exchange chromatography.
A 4× assay mixture of 6×His:Flag-tagged human RORγ-LBD with the agonist ligand 7-β-hydroxycholesterol was prepared in assay buffer (50 mM HEPES pH 7.4, BSA 0.05%, 150 mM NaCl, 5 mM MgCl2, 1 mM DTT, 0.01% Tween-20). For control wells a 4× mixture of 6×His:Flag-tagged human ROR gamma LBD alone was also prepared.
A 4× stock of biotinylated coactivator peptide containing the LXXLL motif from GRIP1 (Biotin-[…]) was prepared in assay buffer.
A 4×detection mixture of nickel chelate Alphascreen™ acceptor beads (PerkinElmer) and streptavidin Alphascreen™ donor beads (PerkinElmer) was prepared in assay buffer.
Compounds to be tested were arranged in a pre-dose 384-well mother plate serially diluted 1 in 2 over 22 columns, in 100% DMSO, at 40× the final test concentration, from a high concentration of 4 mM. DMSO with no compound was placed in control columns. The compounds were robotically dispensed directly into assay plates containing assay buffer to a 4× final test concentration.
Following compound addition, the 6×His:Flag-tagged human RORγ-LBD plus 7-β-hydroxycholesterol assay mixture, biotinylated coactivator peptide and detection mixture were added. Final assay conditions were 5 nM 6×His:Flag-tagged human RORγ-LBD, 30 nM 7-β-hydroxycholesterol, 50 nM biotinylated coactivator peptide, 2.5 ug/ml nickel acceptor beads and 10 ug/ml streptavidin donor beads. The final concentration of DMSO in the assay was 2.5%.
After overnight incubation at room temperature plates were read on and Envision™ plate reader (PerkinElmer).
Data was plotted and pIC50 values were calculated using the Genedata Screener™ data analysis suite (Genedata).

| SMILES | IC50 |
| --- | --- |
| C[C@@H]1C[C@@H](n2ncc(C(=O)N(CC(=O)c3c(Cl)cncc3Cl)CC3(F)CC3)c2C(F)(F)F)CC[C@@H]1C(=O)O (stereo in doubt) [Example 736, (1S,2R,4S)-4-(4-((2-(3,5-dichloro-4-pyridinyl)-2-oxoethyl)((1-fluorocyclopropyl)methyl)carbamoyl)-5-(trifluoromethyl)-1H-pyrazol-1-yl)-2-methylcyclohexanecarboxylic acid] | 110 nM |
| Cc1cc(Cl)c(C(=O)CN(C(=O)c2cnn(C3CCC(C(=O)O)CC3)c2C(F)(F)F)C2CCC(C)(C)CC2)c(Cl)c1 (stereo in doubt) [Example 516, trans-4-(4-((2-(2,6-dichloro-4-methylphenyl)-2-oxoethyl)(4,4-dimethylcyclohexyl)carbamoyl)-5-(trifluoromethyl)-1H-pyrazol-1-yl)-1-cyclohexanecarboxylic acid] | 6.03 nM |
| C[C@]1(C(=O)O)CC[C@H](n2ncc(C(=O)N(CCC3CC3)CC(=O)c3c(Cl)cncc3Cl)c2C(F)(F)F)CC1 [Example 776, trans-4-(4-((2-cyclopropylethyl)(2-(3,5-dichloro-4-pyridinyl)-2-oxoethyl)carbamoyl)-5-(trifluoromethyl)-1H-pyrazol-1-yl)-1-methylcyclohexanecarboxylic acid] | 21.9 nM |
| CC(C)(CN(CC(=O)c1c(Cl)cncc1Cl)C(=O)c1cnn([C@H]2CC[C@H](CC(=O)O)CC2)c1C(F)(F)F)C(F)(F)F [Example 884, (trans-4-(4-((2-(3,5-dichloro-4-pyridinyl)-2-oxoethyl)(3,3,3-trifluoro-2,2-dimethylpropyl)carbamoyl)-5-(trifluoromethyl)-1H-pyrazol-1-yl)cyclohexyl)acetic acid] | 1.82 nM |
| COC1(CN(CC(=O)c2c(Cl)cncc2Cl)C(=O)c2cnn([C@H]3CC[C@](C)(C(=O)O)CC3)c2C(F)(F)F)CC1 [Example 844, trans-4-(4-((2-(3,5-dichloro-4-pyridinyl)-2-oxoethyl)((1-methoxycyclopropyl)methyl)carbamoyl)-5-(trifluoromethyl)-1H-pyrazol-1-yl)-1-methylcyclohexanecarboxylic acid] | 30.2 nM |
| Cc1cc(F)c(C(=O)CN(C[C@@]2(C)CCCO2)C(=O)c2cnn([C@H]3CC[C@](C)(C(=O)O)CC3)c2C(F)(F)F)c(Cl)c1 [Example 806, trans-4-(4-((2-(2-chloro-6-fluoro-4-methylphenyl)-2-oxoethyl)(((2R)-2-methyltetrahydro-2-furanyl)methyl)carbamoyl)-5-(trifluoromethyl)-1H-pyrazol-1-yl)-1-methylcyclohexanecarboxylic acid] | 102 nM |
| Cc1cc(Cl)c(C(=O)CN(CC2CCC3(CC2)CC3)C(=O)c2cnn([C@H]3CC[C@H](C(=O)O)CC3)c2C(F)(F)F)c(Cl)c1 [Example 518, trans-4-(4-((2-(2,6-dichloro-4-methylphenyl)-2-oxoethyl)(spiro[2.5]oct-6-ylmethyl)carbamoyl)-5-(trifluoromethyl)-1H-pyrazol-1-yl)cyclohexanecarboxylic acid] | 2.63 nM |
| Cc1cc(Cl)c(C(=O)CN(CC2(F)CC2)C(=O)c2cnn([C@H]3CC[C@](C)(C(=O)O)CC3)c2C(F)(F)F)c(Cl)c1 [Example 630, trans-4-(4-((2-(2,6-dichloro-4-methylphenyl)-2-oxoethyl)((1-fluorocyclopropyl)methyl)carbamoyl)-5-(trifluoromethyl)-1H-pyrazol-1-yl)-1-methylcyclohexanecarboxylic acid] | 3.98 nM |
| O=C(CN(Cc1ccc(C(F)(F)F)cc1)C(=O)c1cnn([C@H]2CC[C@H](C(=O)O)CC2)c1C(F)(F)F)c1c(Cl)cccc1Cl [Example 527, trans-4-(4-((2-(2,6-dichlorophenyl)-2-oxoethyl)(4-(trifluoromethyl)benzyl)carbamoyl)-5-(trifluoromethyl)-1H-pyrazol-1-yl)cyclohexanecarboxylic acid] | 8.32 nM |
| CC1(CN(CCc2c(Cl)cncc2Cl)C(=O)c2cnn([C@H]3CC[C@H](C(=O)O)CC3)c2C(F)(F)F)CCCCC1 [Example 549, trans-4-(4-((2-(3,5-dichloro-4-pyridinyl)ethyl)((1-methylcyclohexyl)methyl)carbamoyl)-5-(trifluoromethyl)-1H-pyrazol-1-yl)cyclohexanecarboxylic acid] | 1.74 nM |
| C[C@H]1C[C@@](C)(C(=O)O)CC[C@H]1n1ncc(C(=O)N(CC(=O)c2c(Cl)cncc2Cl)CC(C)(C)C)c1C(F)(F)F [Example 856, (1S,3S,4R)-4-(4-((2-(3,5-dichloro-4-pyridinyl)-2-oxoethyl)(2,2-dimethylpropyl)carbamoyl)-5-(trifluoromethyl)-1H-pyrazol-1-yl)-1,3-dimethylcyclohexanecarboxylic acid] | 67.6 nM |
| CC1(C)[C@@H]2C[C@H](N(CC(=O)c3c(Cl)cccc3Cl)C(=O)c3cnn([C@H]4C[C@@H](CC(=O)O)C4)c3C(F)(F)F)C[C@@H]21 [Example 859, (cis-3-(4-((2-(2,6-dichlorophenyl)-2-oxoethyl)((1R,3r,5S)-6,6-dimethylbicyclo[3.1.0]hex-3-yl)carbamoyl)-5-(trifluoromethyl)-1H-pyrazol-1-yl)cyclobutyl)acetic acid] | 6.03 nM |
| CC1(C)C[C@H](CN(CC(=O)c2c(Cl)cccc2Cl)C(=O)c2cnn([C@H]3CC[C@](C)(C(=O)O)CC3)c2C(F)(F)F)O1 [Example 628, trans-4-(4-((2-(2,6-dichlorophenyl)-2-oxoethyl)(((2R)-4,4-dimethyl-2-oxetanyl)methyl)carbamoyl)-5-(trifluoromethyl)-1H-pyrazol-1-yl)-1-methylcyclohexanecarboxylic acid] | 26.9 nM |
| CC1(CN(CC(=O)c2c(Cl)cccc2Cl)C(=O)c2cnn([C@H]3CC[C@](C)(C(=O)O)CC3)c2C(F)(F)F)CCC1 [Example 760, trans-4-(4-((2-(2,6-dichlorophenyl)-2-oxoethyl)((1-methylcyclobutyl)methyl)carbamoyl)-5-(trifluoromethyl)-1H-pyrazol-1-yl)-1-methylcyclohexanecarboxylic acid] | 2.4 nM |
| C[C@]1(CN(CCc2c(Cl)cncc2Cl)C(=O)c2cnn([C@H]3CC[C@](C)(C(=O)O)CC3)c2C(F)(F)F)CCCO1 [Example 681, trans-4-(4-((2-(3,5-dichloro-4-pyridinyl)ethyl)(((2R)-2-methyltetrahydro-2-furanyl)methyl)carbamoyl)-5-(trifluoromethyl)-1H-pyrazol-1-yl)-1-methylcyclohexanecarboxylic acid] | 9.55 nM |
| CC1(C)CC(CN(CC(=O)c2ccccc2Br)C(=O)c2cnn([C@H]3CC[C@@H](C(=O)O)CC3)c2C(F)(F)F)C1 [Example 585, cis-4-(4-((2-(2-bromophenyl)-2-oxoethyl)((3,3-dimethylcyclobutyl)methyl)carbamoyl)-5-(trifluoromethyl)-1H-pyrazol-1-yl)cyclohexanecarboxylic acid] | 69.2 nM |
| C[C@H]1C[C@@H](n2ncc(C(=O)N(CC(=O)c3c(Cl)cncc3Cl)CC(C)(C)C(F)(F)F)c2C(F)(F)F)CC[C@@H]1C(=O)O (stereo in doubt) [Example 864, (1S,2S,4S)-4-(4-((2-(3,5-dichloro-4-pyridinyl)-2-oxoethyl)(3,3,3-trifluoro-2,2-dimethylpropyl)carbamoyl)-5-(trifluoromethyl)-1H-pyrazol-1-yl)-2-methylcyclohexanecarboxylic acid] | 2.95 nM |
